{
  "source": "patent EP0661967B1",
  "about": "“COMBINED VIRUSTATIC ANTIMEDIATOR (COVAM) TREATMENT OF COMMON COLDS” (UNIVERSITY OF VIRGINIA PATENT FOUNDATION, priority 1991, dated 1993)",
  "origin": "cited, not measured here",
  "key": {"rhinovirus [1]": {"test_system": "rhinovirus", "settings": "in vivo"}, "rhinovirus [2]": {"test_system": "rhinovirus"}},
  "data": [
    {"smiles": "CC(C)[N+]1(C)[C@@H]2CC[C@H]1C[C@@H](OC(=O)C(CO)c1ccccc1)C2", "note": "(some centres unmarked) [ipratropium]", "values": [
      {"measurement": "effect on nasal symptoms and nasal mucus production", "setting": "rhinovirus [1]", "result": "mild beneficial effect"},
      {"measurement": "mean total symptom scores during four days of treatment", "setting": "rhinovirus [1]", "result": "10±1.6"}
    ]},
    {"smiles": "COc1ccc2cc([C@H](C)C(=O)O)ccc2c1", "note": "[naproxen]", "values": [
      {"measurement": "mean total symptoms score lower than that for the group receiving placebo", "setting": "rhinovirus [2]; four days of treatment", "result": "thirty four"},
      {"measurement": "mean total symptoms score during the four days of treatment", "setting": "rhinovirus [2]; loading dose 400 or 500 mg, then 200 or 500 mg three times a day for five days, begun 6 hours after virus challenge, placebo 17.35±2.6, p=0.08", "result": "12±1.65"},
      {"measurement": "headache, malais, myalgia, and cough", "setting": "rhinovirus [2]; treated group versus placebo", "result": "significantly reduced"}
    ]}
  ]
}
